From patent US5059588A, “Methods and compositions for healing bone using Gly His Lys: Copper” (ProCyte Corporation, Incorporated, priority 1989, dated 1991)
Several values for one entry are separate records, joined by “and”; a condition that tells them apart may be missing. Equal values may be shown once.

Legend:
[1] = test system: drill holes in bone (femur) of male rats; assay: Healing of drill-hole defects in the femur of rats; format: in vivo, rat; conditions: for bone healing activity: general statement
Method: In one representative study, male rats weighing approximately 350-400 grams received drill holes in bone which were then treated with pharmaceutical preparations containing GHL-Cu.
More specifically, on the day of surgery (Day 0), animals were sedated with pentobarbital (I.P., 35 mg/kg). The hair was clipped from the left rear upper limb, and the area was prepped in a sterile fashion. Using a #15 blade, a 2 cm incision was made on the lateral surface of the upper limb following the approximate location of the femur, extending from just below the crest of the ilium. The tensor fasciae latae muscle was exposed and incised parallel to the muscle filers (1 cm incision). Careful retraction of the muscle provided exposure of the vastus lateralis muscle overlying the femur. The approach to the femur was completed upon incision and retraction of this muscle. This provided exposure of 1 cm of the lateral and ventral surfaces of bone. Using a periosteal elevator, the surface of the femur was cleaned of periosteum. At this point, very little bleeding had been encountered. Using a Dremel drill fitted with a 1 mm diameter cutting burr, a hole was drilled in the femur to a depth of approximately 0.75 mm. Little bleeding was evident except in the rare case of marrow penetration. The area was irrigated and hemostasis achieved. At this point, a pharmaceutical preparation of the compositions of the present invention was applied to the exposed bone surface. The muscle was closed in layers using chromic suture, and the skin was closed with stainless steel wound clips. Structure and function of the muscles was intact following surgery, and very little, if any, morbidity was associated with the surgical procedure.
After 7 to 14 days, the animals were terminated and their femurs removed. Evidence of bone growth was determined from gross visualization of the defect using a Wild dissecting scope, and from subsequent histological preparations (decalcification, paraffin embedding, and Trichrome staining).
Results at 12 to 14 days following surgery utilizing pharmaceutical preparation B to accelerate the bone healing process are summarized in Table 2. Controls consisted of bones without treatment.
In a second study, defects were created in bones and pharmaceutical preparation E applied to the exposed bone in the same manner as described in Example 9.

[2] = test system: bone models implanted in rats; assay: Granulation tissue formation in stainless steel chambers (bone healing model) implanted subcutaneously in rats; format: in vivo, rat; conditions: for PROTEIN: relative to BSA
Source text: The subcutaneous implantation of stainless steel chambers in rats provides a reproducible models to monitor the healing of bone. This model in many ways mimics the early events in the formation of granulation tissue found in fractures or other types of injury to bone. Implantation of these chambers triggers a series of responses which reflect the series of phases involved in bone healing--fibrin clot formation, infiltration of white cells, collagen synthesis, and new blood vessel formation.
The assay involves the implantation of two stainless steel chambers (1×2.5 cm cylindrical 312 SS, 20 mesh, with Teflon end caps) on each side of the dorsal midline of rats. After one week to allow for encapsulation of the chambers, one chamber on each rat was injected with 0.2 ml of a 10 mg/ml solution of GHL-Cu and the other with the same volume of saline. Injections are made on days […], 7, 8, 12, 13, 15 and 19. The chambers were removed on day 15 and day 29.
The chambers were lyophilized and the interior contents removed for biochemical analysis. The biochemical parameters examined include the total dry weight, protein content, angiogenesis (alkaline phosphatase activity), and collagen content (hydroxyproline content after acid hydrolysis). Significant increases were found in all the biochemical parameters tested when compounds of the present invention were used as compared to controls.
Protein content was determined by the method of Lowry (Lowry et al., J. Biol. Chem. 193:265-275, 1951) using Bovine Serum Albumin (BSA) as a standard. Angiogenesis was determined by measuring the amount of alkaline phosphatase activity using p-nitrophenyl phosphate as a substrate (Lyles et al., C. Biochem. Pharm. 33:2569-2574, 1984). The collagen content was determined by acid hydrolysis and a colorimetric assay for hydroxyproline (Bergman et al., R. Clin. Chim. Acta 27:347-349, 1970), an amino acid specific for collagen.
The total protein is expressed as mg protein (relative to BSA) per chamber, the angiogenesis as alkaline phosphatase (AP) units per chamber, where one unit=the amount of homogenate which causes an increase in absorbance at 405 nm of 1.0 per min., and the hydroxyproline (HP, Collagen Content) as μg HP per chamber. Comparison with control data is made by determining the ratio, treated/control (T/C) for each parameter.

In the case of “L-lysyl-L-histidyl-glycine:copper(II) [LHG-Cu]”, the bone healing activity [1] is reported as “have shown bone healing activity”.

For “glycyl-L-histidyl-L-lysine:copper(II) [GHL-Cu]”, the “ANGIOGENESIS (alkaline phosphatase)” value ([2]; day 15) was 6.5 ± 3.2 AP units/chamber, the “COLLAGEN (hydroxyproline)” value ([2]; day 15) was 243 ± 215 μg HP/chamber and the “DRY WEIGHT” value ([2]; day 15, chamber injected with 0.2 ml of 10 mg/ml solution) was 92 ± 46 mg. For the same substance, the T/C dry weight ([2]; day 15, ratio treated/control) was ~ 2 and 2.2, the T/C protein ([2]; day 15, ratio treated/control) was ~ 2 and 2.0 and the PROTEIN ([2]; day 15) was 69 ± 32 mg/chamber. For the same substance, the “ANGIOGENESIS (alkaline phosphatase)” value ([2]; day 29) was 20.3 ± 10.0 AP units/chamber, the “COLLAGEN (hydroxyproline)” value ([2]; day 29) was 1849 ± 546 μg HP/chamber and the “DRY WEIGHT” value ([2]; day 29) was 165 ± 38 mg. The T/C angiogenesis ([2]; day 29, ratio treated/control) was 3.2, the T/C collagen ([2]; day 29, ratio treated/control) was 1.9 and the T/C dry weight ([2]; day 29, ratio treated/control) was 1.7. For the same substance, the T/C protein ([2]; day 29, ratio treated/control) was 1.4, the PROTEIN ([2]; day 29) was 77 ± 19 mg/chamber and the “histology, periosteal layer (FIG. 6)” value ([1]; X40, Trichrome stain, versus placebo) was “better developed and continuous”. For the same substance, the “histology, new bone (FIG. 7)” value ([1]; X 63, Trichrome stain, versus placebo) was “increase in density of new bone”, the “gross appearance of bone defect (FIG. 5)” value ([1]; day 7, versus placebo gel) was “influx of bony calcification and granulation tissue” and the bone healing activity [1] was “have shown bone healing activity”.
